# Measurements published in PubChem BioAssay AID1963835 (Molecular Pharmacology Branch, DTP, NCI, 2024).
# pIC50: −log10 of the molar value.
# Tested on: 699152-130-R-J1-PDC complex spheroid viability
# Assay: Anticancer human tumor 699152-130-R-J1-PDC patient-derived pancreatic carcinoma cell line growth inhibition [POLQ]
# Settings: for pIC50: curve of first compound; for viability, T/C: stronger effect = lower value
# Method in brief: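 Growth inhibition in 3D: complex spheroids (tumor PDC, HUVEC, MSC) treated with POLQ inhibitor combinations; where Cmax unknown, highest tested concentration 10 microM, except SN-38 at 1 microM.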
# [1] = second compound 0.0316 µM, first compound 0.0316 µM
# [2] = second compound 0.0316 µM, first compound 0.1 µM
# [3] = second compound 0.1 µM, first compound 0.0316 µM
# [4] = second compound 0.1 µM, first compound 0.1 µM
# [5] = second compound 0.316 µM, first compound 0.0316 µM
# [6] = second compound 0.316 µM, first compound 0.1 µM
# [7] = second compound 1 µM, first compound 0.0316 µM
# [8] = second compound 1 µM, first compound 0.1 µM
# [9] = second compound 3.16 µM, first compound 0.0316 µM
# [10] = second compound 3.16 µM, first compound 0.1 µM
# [11] = second compound 10 µM, first compound 0.0316 µM
# [12] = second compound 10 µM, first compound 0.1 µM
# [13] = second compound 0.0316 µM, first compound 0.316 µM
# [14] = second compound 0.0316 µM, first compound 1 µM
# [15] = second compound 0.0316 µM, first compound 3.16 µM
# [16] = second compound 0.0316 µM, first compound 10 µM
# [17] = second compound 0.1 µM, first compound 0.316 µM
# [18] = second compound 0.1 µM, first compound 1 µM
# [19] = second compound 0.1 µM, first compound 3.16 µM
# [20] = second compound 0.1 µM, first compound 10 µM
# [21] = second compound 0.316 µM, first compound 0.316 µM
# [22] = second compound 0.316 µM, first compound 1 µM
# [23] = second compound 0.316 µM, first compound 3.16 µM
# [24] = second compound 0.316 µM, first compound 10 µM
# [25] = second compound 1 µM, first compound 0.316 µM
# [26] = second compound 1 µM, first compound 1 µM
# [27] = second compound 1 µM, first compound 3.16 µM
# [28] = second compound 1 µM, first compound 10 µM
# [29] = second compound 3.16 µM, first compound 0.316 µM
# [30] = second compound 3.16 µM, first compound 1 µM
# [31] = second compound 3.16 µM, first compound 3.16 µM
# [32] = second compound 3.16 µM, first compound 10 µM
# [33] = second compound 10 µM, first compound 0.316 µM
# [34] = second compound 10 µM, first compound 1 µM
# [35] = second compound 10 µM, first compound 3.16 µM
# [36] = second compound 10 µM, first compound 10 µM
# 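Further: spheroids exposed to agents for 7 days before viability reading.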
# 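Wherever viability, T/C is given: percent of DMSO vehicle control viability so 100% = vehicle and 0% = no viable signal.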
structure (smiles),measurement,setting,value
Cn1ncnc1[C@H]1c2n[nH]c(=O)c3cc(F)cc(c23)N[C@@H]1c1ccc(F)cc1 + COC1C(OC(N)=O)C(O)C(Oc2ccc3c(O)c(NC(=O)c4ccc(O)c(CC=C(C)C)c4)c(=O)oc3c2C)OC1(C)C,pIC50,second compound 0.0316 µM,< 7.00
same,pIC50,second compound 0.1 µM,< 7.00
same,pIC50,second compound 0.316 µM,< 7.00
same,pIC50,second compound 1 µM,< 7.00
same,pIC50,second compound 3.16 µM,< 7.00
same,pIC50,second compound 10 µM,< 7.00
same,"viability, T/C","second compound 0.0316 µM, first compound 0.000316 µM",114%
same,"viability, T/C","second compound 0.0316 µM, first compound 0.001 µM",86.2%
same,"viability, T/C","second compound 0.0316 µM, first compound 0.00316 µM",101%
same,"viability, T/C","second compound 0.0316 µM, first compound 0.01 µM",93.4%
same,"viability, T/C",[1],92.9%
same,"viability, T/C",[2],84.8%
same,"viability, T/C","second compound 0.1 µM, first compound 0.000316 µM",102%
same,"viability, T/C","second compound 0.1 µM, first compound 0.001 µM",105%
same,"viability, T/C","second compound 0.1 µM, first compound 0.00316 µM",87.1%
same,"viability, T/C","second compound 0.1 µM, first compound 0.01 µM",111%
same,"viability, T/C",[3],85%
same,"viability, T/C",[4],80%
same,"viability, T/C","second compound 0.316 µM, first compound 0.000316 µM",101%
same,"viability, T/C","second compound 0.316 µM, first compound 0.001 µM",99.5%
same,"viability, T/C","second compound 0.316 µM, first compound 0.00316 µM",92.3%
same,"viability, T/C","second compound 0.316 µM, first compound 0.01 µM",103%
same,"viability, T/C",[5],87.8%
same,"viability, T/C",[6],83.6%
same,"viability, T/C","second compound 1 µM, first compound 0.000316 µM",119%
same,"viability, T/C","second compound 1 µM, first compound 0.001 µM",107%
same,"viability, T/C","second compound 1 µM, first compound 0.00316 µM",101%
same,"viability, T/C","second compound 1 µM, first compound 0.01 µM",102%
same,"viability, T/C",[7],93.9%
same,"viability, T/C",[8],82.5%
same,"viability, T/C","second compound 3.16 µM, first compound 0.000316 µM",95.3%
same,"viability, T/C","second compound 3.16 µM, first compound 0.001 µM",89.3%
same,"viability, T/C","second compound 3.16 µM, first compound 0.00316 µM",90.9%
same,"viability, T/C","second compound 3.16 µM, first compound 0.01 µM",96.9%
same,"viability, T/C",[9],90.8%
same,"viability, T/C",[10],80.8%
same,"viability, T/C","second compound 10 µM, first compound 0.000316 µM",98.7%
same,"viability, T/C","second compound 10 µM, first compound 0.001 µM",105%
same,"viability, T/C","second compound 10 µM, first compound 0.00316 µM",93.9%
same,"viability, T/C","second compound 10 µM, first compound 0.01 µM",103%
same,"viability, T/C",[11],88.4%
same,"viability, T/C",[12],90.4%
COc1cc2cc(C(=O)CCC(=O)O)sc2cc1OC + Cc1cccc(N(C)C(=O)C2C(O)CCN2c2nc(C)cc(C(F)(F)F)c2C#N)c1,pIC50,second compound 0.0316 µM,< 5.00
same,pIC50,second compound 0.1 µM,< 5.00
same,pIC50,second compound 0.316 µM,< 5.00
same,pIC50,second compound 1 µM,< 5.00
same,pIC50,second compound 3.16 µM,< 5.00
same,pIC50,second compound 10 µM,< 5.00
same,"viability, T/C",[1],99.4%
same,"viability, T/C",[2],91.8%
same,"viability, T/C",[13],92.6%
same,"viability, T/C",[14],98.7%
same,"viability, T/C",[15],110%
same,"viability, T/C",[16],95.3%
same,"viability, T/C",[3],113%
same,"viability, T/C",[4],108%
same,"viability, T/C",[17],106%
same,"viability, T/C",[18],90.3%
same,"viability, T/C",[19],121%
same,"viability, T/C",[20],93.2%
same,"viability, T/C",[5],93%
same,"viability, T/C",[6],105%
same,"viability, T/C",[21],92.5%
same,"viability, T/C",[22],102%
same,"viability, T/C",[23],114%
same,"viability, T/C",[24],94.9%
same,"viability, T/C",[7],94.8%
same,"viability, T/C",[8],99.4%
same,"viability, T/C",[25],92.1%
same,"viability, T/C",[26],106%
same,"viability, T/C",[27],107%
same,"viability, T/C",[28],107%
same,"viability, T/C",[9],102%
same,"viability, T/C",[10],97.8%
same,"viability, T/C",[29],104%
same,"viability, T/C",[30],105%
same,"viability, T/C",[31],89.1%
same,"viability, T/C",[32],93.3%
same,"viability, T/C",[11],92.2%
same,"viability, T/C",[12],102%
same,"viability, T/C",[33],105%
same,"viability, T/C",[34],96%
same,"viability, T/C",[35],98.9%
same,"viability, T/C",[36],103%
COc1cc2cc(C(=O)CCC(=O)O)sc2cc1OC + COC1C(OC(N)=O)C(O)C(Oc2ccc3c(O)c(NC(=O)c4ccc(O)c(CC=C(C)C)c4)c(=O)oc3c2C)OC1(C)C,pIC50,second compound 0.0316 µM,< 5.00
same,pIC50,second compound 0.1 µM,< 5.00
same,pIC50,second compound 0.316 µM,< 5.00
same,pIC50,second compound 1 µM,< 5.00
same,pIC50,second compound 3.16 µM,< 5.00
same,pIC50,second compound 10 µM,< 5.00
same,"viability, T/C",[1],104%
same,"viability, T/C",[2],113%
same,"viability, T/C",[13],97.1%
same,"viability, T/C",[14],95.8%
same,"viability, T/C",[15],106%
same,"viability, T/C",[16],103%
same,"viability, T/C",[3],91.2%
same,"viability, T/C",[4],109%
same,"viability, T/C",[17],94.3%
same,"viability, T/C",[18],93.7%
same,"viability, T/C",[19],103%
same,"viability, T/C",[20],97.5%
same,"viability, T/C",[5],107%
same,"viability, T/C",[6],110%
same,"viability, T/C",[21],105%
same,"viability, T/C",[22],108%
same,"viability, T/C",[23],101%
same,"viability, T/C",[24],95.8%
same,"viability, T/C",[7],110%
same,"viability, T/C",[8],105%
same,"viability, T/C",[25],93%
same,"viability, T/C",[26],102%
same,"viability, T/C",[27],98.6%
same,"viability, T/C",[28],103%
same,"viability, T/C",[9],110%
same,"viability, T/C",[10],98.6%
same,"viability, T/C",[29],107%
same,"viability, T/C",[30],92.4%
same,"viability, T/C",[31],109%
same,"viability, T/C",[32],102%
same,"viability, T/C",[11],113%
same,"viability, T/C",[12],100%
same,"viability, T/C",[33],120%
same,"viability, T/C",[34],107%
same,"viability, T/C",[35],98.8%
same,"viability, T/C",[36],106%
